Source: ChEMBL document CHEMBL1147684, “Nitrogen-bridged substituted 8-arylquinolines as potent PDE IV inhibitors” (Bioorg Med Chem Lett, 2006)

Columns and labels:
[1] = target: 3',5'-cyclic-AMP phosphodiesterase 4D (Homo sapiens, UniProt Q08499); test: Inhibition of human GST-PDE4D
[2] = target: 3',5'-cyclic-AMP phosphodiesterase 4C (Homo sapiens, UniProt Q08493); test: Inhibition of human GST-PDE4C
[3] = target: T1, 3',5'-cyclic-AMP phosphodiesterase 4B (Homo sapiens, UniProt Q07343); test: Ability to block TNFalpha release through inhibition of PDE4 in LPS-stimulated human whole blood; format: functional, tissue-based
[4] = target: 3',5'-cyclic-AMP phosphodiesterase 4A (Homo sapiens, UniProt P27815); test: Inhibition of human GST-PDE4A
[5] = target: T1, 3',5'-cyclic-AMP phosphodiesterase 4B; test: Inhibition of human GST-PDE4B
[6] = Cmax in rat; format: ADME, organism-based; settings: in vivo
Cavia porcellus [7] = test: Inhibition of ovalbumin-induced bronchoconstriction in guinea pig at 30 ug/kg, ip; format: functional
[8] = Oral bioavailability in squirrel monkey; format: ADME, organism-based, Saimiri sciureus; settings: in vivo
[9] = Cmax in squirrel monkey; format: ADME, organism-based, Saimiri sciureus; settings: in vivo
[10] = Oral bioavailability in rat; format: ADME, organism-based; settings: in vivo
[11] = Half life in iv dosed squirrel monkey; format: ADME, organism-based, Saimiri sciureus; settings: in vivo
[12] = Half life in iv dosed rat; format: ADME, organism-based; settings: in vivo
Cavia porcellus [13] = test: Inhibition of ovalbumin-induced bronchoconstriction in guinea pig at 1 mg/kg, ip; format: functional; settings: route intraperitoneal

3',5'-cyclic-AMP phosphodiesterase 4C, sequence (Q08493 whole entry): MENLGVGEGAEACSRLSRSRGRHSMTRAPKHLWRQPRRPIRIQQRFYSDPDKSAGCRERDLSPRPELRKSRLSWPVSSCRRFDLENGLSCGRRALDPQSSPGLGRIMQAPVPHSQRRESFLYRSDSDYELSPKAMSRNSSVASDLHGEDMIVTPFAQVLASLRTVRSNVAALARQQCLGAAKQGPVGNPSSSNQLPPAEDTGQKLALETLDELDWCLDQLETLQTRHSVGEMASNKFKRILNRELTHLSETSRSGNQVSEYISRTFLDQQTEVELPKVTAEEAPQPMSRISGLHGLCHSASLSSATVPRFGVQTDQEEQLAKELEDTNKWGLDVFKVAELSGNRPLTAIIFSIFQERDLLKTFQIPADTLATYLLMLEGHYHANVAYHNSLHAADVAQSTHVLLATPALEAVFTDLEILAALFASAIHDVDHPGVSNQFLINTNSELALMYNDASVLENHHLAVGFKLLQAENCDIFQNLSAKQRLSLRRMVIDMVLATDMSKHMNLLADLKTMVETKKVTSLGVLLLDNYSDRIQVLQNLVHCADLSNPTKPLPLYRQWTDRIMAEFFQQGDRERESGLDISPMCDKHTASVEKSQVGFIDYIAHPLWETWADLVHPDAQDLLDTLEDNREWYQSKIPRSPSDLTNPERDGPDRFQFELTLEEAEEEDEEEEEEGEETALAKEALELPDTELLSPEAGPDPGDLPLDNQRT
T1 sequence (Q07343 whole entry): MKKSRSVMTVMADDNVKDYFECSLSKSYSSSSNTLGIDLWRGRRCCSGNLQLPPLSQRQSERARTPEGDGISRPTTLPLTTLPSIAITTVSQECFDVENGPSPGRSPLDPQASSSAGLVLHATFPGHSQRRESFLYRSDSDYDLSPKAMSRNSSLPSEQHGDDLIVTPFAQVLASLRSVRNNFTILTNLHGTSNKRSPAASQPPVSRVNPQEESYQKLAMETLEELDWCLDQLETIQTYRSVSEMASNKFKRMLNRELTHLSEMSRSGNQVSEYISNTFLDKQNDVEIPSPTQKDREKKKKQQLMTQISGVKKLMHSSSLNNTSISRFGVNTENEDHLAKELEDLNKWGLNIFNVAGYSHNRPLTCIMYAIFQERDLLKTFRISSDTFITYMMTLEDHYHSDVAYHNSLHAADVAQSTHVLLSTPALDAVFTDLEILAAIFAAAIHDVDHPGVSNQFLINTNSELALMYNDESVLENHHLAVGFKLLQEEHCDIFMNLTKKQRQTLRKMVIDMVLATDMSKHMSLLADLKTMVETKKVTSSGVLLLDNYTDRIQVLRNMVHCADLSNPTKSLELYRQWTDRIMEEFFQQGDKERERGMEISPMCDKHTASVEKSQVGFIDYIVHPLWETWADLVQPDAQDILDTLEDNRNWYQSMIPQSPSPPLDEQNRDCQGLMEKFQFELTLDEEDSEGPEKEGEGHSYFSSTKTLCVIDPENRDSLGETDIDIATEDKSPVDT
3',5'-cyclic-AMP phosphodiesterase 4A, sequence (P27815 whole entry): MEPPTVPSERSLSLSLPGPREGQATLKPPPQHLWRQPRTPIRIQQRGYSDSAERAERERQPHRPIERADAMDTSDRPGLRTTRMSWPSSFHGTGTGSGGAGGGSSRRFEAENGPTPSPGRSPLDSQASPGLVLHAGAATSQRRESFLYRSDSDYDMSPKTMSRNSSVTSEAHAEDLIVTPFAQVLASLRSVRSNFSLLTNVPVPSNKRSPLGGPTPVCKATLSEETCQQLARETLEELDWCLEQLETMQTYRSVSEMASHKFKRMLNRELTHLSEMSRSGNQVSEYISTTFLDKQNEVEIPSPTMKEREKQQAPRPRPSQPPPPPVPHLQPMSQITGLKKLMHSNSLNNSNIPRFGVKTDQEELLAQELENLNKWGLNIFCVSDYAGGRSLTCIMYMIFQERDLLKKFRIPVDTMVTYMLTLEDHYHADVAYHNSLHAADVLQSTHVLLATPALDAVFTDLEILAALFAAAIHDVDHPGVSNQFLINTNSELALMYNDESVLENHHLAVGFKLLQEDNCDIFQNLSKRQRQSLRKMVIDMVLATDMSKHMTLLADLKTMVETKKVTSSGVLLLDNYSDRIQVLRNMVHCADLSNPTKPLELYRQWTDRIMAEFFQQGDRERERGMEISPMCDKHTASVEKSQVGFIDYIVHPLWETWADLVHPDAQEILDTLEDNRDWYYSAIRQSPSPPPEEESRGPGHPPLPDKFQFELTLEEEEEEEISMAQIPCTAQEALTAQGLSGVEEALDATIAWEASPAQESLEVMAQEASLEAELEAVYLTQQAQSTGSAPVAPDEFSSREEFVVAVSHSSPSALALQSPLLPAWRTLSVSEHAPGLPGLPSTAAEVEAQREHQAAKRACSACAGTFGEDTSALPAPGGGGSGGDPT
3',5'-cyclic-AMP phosphodiesterase 4D, sequence (Q08499 whole entry): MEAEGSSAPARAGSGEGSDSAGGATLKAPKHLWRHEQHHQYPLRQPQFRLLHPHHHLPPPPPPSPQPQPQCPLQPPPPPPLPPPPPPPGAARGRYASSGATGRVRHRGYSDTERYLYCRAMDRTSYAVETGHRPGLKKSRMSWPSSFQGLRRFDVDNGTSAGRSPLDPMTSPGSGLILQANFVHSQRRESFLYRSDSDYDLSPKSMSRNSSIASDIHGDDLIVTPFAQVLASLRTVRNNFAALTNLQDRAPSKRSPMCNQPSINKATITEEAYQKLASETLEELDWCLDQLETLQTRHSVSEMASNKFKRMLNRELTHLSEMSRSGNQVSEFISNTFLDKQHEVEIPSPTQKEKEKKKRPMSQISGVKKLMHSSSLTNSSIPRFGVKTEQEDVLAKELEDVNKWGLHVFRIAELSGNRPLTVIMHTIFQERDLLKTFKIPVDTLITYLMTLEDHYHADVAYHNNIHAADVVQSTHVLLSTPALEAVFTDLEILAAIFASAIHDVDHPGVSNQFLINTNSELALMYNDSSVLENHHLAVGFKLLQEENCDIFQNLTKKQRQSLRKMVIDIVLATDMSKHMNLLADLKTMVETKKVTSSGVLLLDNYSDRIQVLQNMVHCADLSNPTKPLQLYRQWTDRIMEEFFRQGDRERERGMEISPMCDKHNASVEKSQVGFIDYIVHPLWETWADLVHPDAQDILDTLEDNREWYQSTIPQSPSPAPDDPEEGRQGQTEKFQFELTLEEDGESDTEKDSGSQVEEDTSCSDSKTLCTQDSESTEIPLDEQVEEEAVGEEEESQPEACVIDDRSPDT

Row | Structure (SMILES) | IC50 [1] | IC50 [2] | IC50 [3] | IC50 [4] | IC50 [5] | Cmax [6] | bioavailability [8] | Cmax [9] | bioavailability [10] | half-life [11] | half-life [12] | inhibition in vivo at 0.03 mg/kg (Cavia porcellus [7]) | inhibition in vivo at 1 mg/kg (Cavia porcellus [13])
1 | Cc1cc(C(=O)N(Cc2cccc(-c3cc(C(C)(C)C#N)cc4cccnc34)c2)c2ccc(S(C)(=O)=O)cc2)no1 | 0.1 nM | 0.9 nM | 30 nM | 0.3 nM | 0.1 nM | – | – | – | – | – | – | – | –
2 | CC(C)(c1cc(-c2cccc(C(=O)Nc3ccccc3)c2)c2ncccc2c1)S(C)(=O)=O | 10 nM | 97 nM | 7000 nM | 16 nM | 5.9 nM | – | – | – | – | – | – | – | –
3 | CC(C)(c1cc(-c2cccc(C(=O)Nc3c(Cl)cncc3Cl)c2)c2ncccc2c1)S(C)(=O)=O | 0.7 nM | 5.5 nM | 90 nM | 0.6 nM | 0.4 nM | – | – | – | – | – | – | – | –
4 | CC(C)(c1cc(-c2cccc(C(=O)Nc3ccc(S(C)(=O)=O)cc3)c2)c2ncccc2c1)S(C)(=O)=O | 2.8 nM | 26 nM | 140 nM | 3.5 nM | 0.5 nM | – | – | – | – | – | – | – | –
5 | CC(C)(c1cc(-c2cccc(NC(=O)c3ccc(S(C)(=O)=O)cc3)c2)c2ncccc2c1)S(C)(=O)=O | 2.3 nM | 10.6 nM | 1000 nM | 1.7 nM | 1.2 nM | – | – | – | – | – | – | – | –
6 | CC(C)OC(=O)N(Cc1cccc(-c2cc(C(C)(C)C#N)cc3cccnc23)c1)c1ccc(S(C)(=O)=O)cc1 | 0.3 nM | 4.2 nM | 80 nM | 0.3 nM | 0.3 nM | – | – | – | – | – | – | – | –
7 | CC(C)(c1cc(-c2cccc(C(N)=O)c2)c2ncccc2c1)S(C)(=O)=O | 74 nM | 490 nM | – | 78 nM | 40 nM | – | – | – | – | – | – | – | –
8 | CC(C)(C#N)c1cc(-c2cccc(CN(Cc3ccc(F)cc3)c3ccc(S(C)(=O)=O)cc3)c2)c2ncccc2c1 | 0.5 nM | 9.5 nM | 1800 nM | 1 nM | 0.1 nM | – | – | – | – | – | – | – | –
9 | CC(C)(C#N)c1cc(-c2cccc(CN(C(=O)Nc3ccccc3)c3ccc(S(C)(=O)=O)cc3)c2)c2ncccc2c1 | 0.1 nM | 0.05 nM | 40 nM | 0.1 nM | 0.03 nM | – | – | – | – | – | – | – | –
10 | CC(C)NC(=O)N(Cc1cccc(-c2cc(C(C)(C)C#N)cc3cccnc23)c1)c1ccc(S(C)(=O)=O)cc1 | 0.1 nM | 1.7 nM | 140 nM | 0.1 nM | 0.1 nM | – | – | – | – | – | – | – | –
11 | CC(C)(C#N)c1cc(-c2cccc(CN(C(=O)c3ccccc3)c3ccc(S(C)(=O)=O)cc3)c2)c2ncccc2c1 | 0.3 nM | 1 nM | 80 nM | 0.2 nM | 0.1 nM | – | – | – | – | – | – | – | –
12 | CC(C)(c1cc(-c2cccc(C(=O)Nc3ccncc3)c2)c2ncccc2c1)S(C)(=O)=O | 3 nM | 17 nM | 200 nM | 3.1 nM | 0.9 nM | – | – | – | – | – | – | – | –
13 | COc1ccc([C@H](Cc2ccncc2)c2ccccc2)cc1OC1CCCC1 [CDP840] | – | – | – | – | – | – | – | – | – | – | – | – | 55%

Second part, led by results:

Row | IC50 [1] | IC50 [2] | IC50 [3] | IC50 [4] | IC50 [5] | Cmax [6] | bioavailability [8] | Cmax [9] | bioavailability [10] | half-life [11] | half-life [12] | Structure (SMILES) | inhibition in vivo at 0.03 mg/kg (Cavia porcellus [7]) | inhibition in vivo at 1 mg/kg (Cavia porcellus [13])
14 | 6.7 nM | 41 nM | 2000 nM | 10 nM | 4.2 nM | – | – | – | – | – | – | CC(=O)N(c1ccc(S(C)(=O)=O)cc1)C(C)c1cccc(-c2cc(C(C)(C)S(C)(=O)=O)cc3cccnc23)c1 (configuration not stated) | – | –
15 | 1.7 nM | 14 nM | 210 nM | 2.1 nM | 0.7 nM | – | – | – | – | – | – | CC(c1cccc(-c2cc(C(C)(C)S(C)(=O)=O)cc3cccnc23)c1)N(C(=O)c1cccnc1)c1ccc(S(C)(=O)=O)cc1 (configuration not stated) | – | –
16 | 10 nM | 70 nM | 4000 nM | 15 nM | 4.4 nM | – | – | – | – | – | – | CC(C)NC(=O)N(Cc1cc(-c2cc(C(C)(C)S(C)(=O)=O)cc3cccnc23)ccc1Cl)c1ccc(S(C)(=O)=O)cc1 | – | –
17 | 1.9 nM | 25 nM | 400 nM | 1.8 nM | 0.7 nM | – | – | – | – | – | – | CC(C)NC(=O)N(c1ccc(S(C)(=O)=O)cc1)C(C)c1cccc(-c2cc(C(C)(C)S(C)(=O)=O)cc3cccnc23)c1 (configuration not stated) | – | –
18 | 0.8 nM | 6.4 nM | 50 nM | 0.6 nM | 0.3 nM | – | – | – | – | – | – | CC(C)NC(=O)N(Cc1cc(-c2cc(C(C)(C)S(C)(=O)=O)cc3cccnc23)ccc1F)c1ccc(S(C)(=O)=O)cc1 | – | –
19 | 0.1 nM | 1.7 nM | 100 nM | 0.1 nM | 0.1 nM | – | – | – | – | – | – | CC(C)NC(=O)N(Cc1cccc(-c2cc(C(C)(C)S(C)(=O)=O)cc3cccnc23)c1)c1ccc(S(C)(=O)=O)cc1 | – | –
20 | 1.4 nM | 17 nM | 800 nM | 1.6 nM | 0.6 nM | – | – | – | – | – | – | CC(c1cccc(-c2cc(C(C)(C)S(C)(=O)=O)cc3cccnc23)c1)N(C(=O)C1CC1)c1ccc(S(C)(=O)=O)cc1 (configuration not stated) | – | –
21 | 0.5 nM | 5.9 nM | 270 nM | 1.5 nM | 0.4 nM | – | – | – | – | – | – | CC(c1cccc(-c2cc(C(C)(C)S(C)(=O)=O)cc3cccnc23)c1)N(C(=O)c1ccc(C(C)(C)O)cc1)c1ccc(S(C)(=O)=O)cc1 (configuration not stated) | – | –
22 | 1.8 nM | 12 nM | 560 nM | 2.3 nM | 0.6 nM | 2700 nM | 98% | 900 nM | 67% | 7 h | 2 h | CC(c1cccc(-c2cc(C(C)(C)S(C)(=O)=O)cc3cccnc23)c1)N(C(=O)c1ccc(F)cc1)c1ccc(S(C)(=O)=O)cc1 (racemic) | 74% | –
23 | 7 nM | 51 nM | 1400 nM | 15 nM | 5.8 nM | – | – | – | – | – | – | CC(c1cccc(-c2cc(C(C)(C)S(C)(=O)=O)cc3cccnc23)c1)N(C(=O)c1ccc(F)cc1)c1ccc(S(C)(=O)=O)cc1 (single isomer, unassigned; enantiomer A) | – | –
24 | 0.7 nM | 7.5 nM | 250 nM | 1.8 nM | 0.5 nM | – | – | – | – | – | – | CC(c1cccc(-c2cc(C(C)(C)S(C)(=O)=O)cc3cccnc23)c1)N(C(=O)c1ccc(F)cc1)c1ccc(S(C)(=O)=O)cc1 (single isomer, unassigned; enantiomer B) | – | –
